In brackets after ≈: the same amount, converted by molar mass.
What was measured:
Format in all cases: cell-based
[1] = system: Staphylococcus aureus MSQS (methicillin sensitive and quinolone sensitive); assay: MIC by agar dilution, Staphylococcus aureus MSQS; conditions: S. aureus MSQS, 10^4 CFU/spot, 37° C., 24 hours
Description: (§1) The following results were obtained on a standard in-vitro test system. The activity is described in terms of the minimum inhibitory concentration (MIC) determined by the agar-dilution technique with an inoculum size of 10^4 CFU/spot. Typically, compounds are active in the range 0.01 to 256 μg/ml.
(§2) Staphylococci were tested on agar, using an inoculum of 10^4 CFU/spot and an incubation temperature of 37° C., for 24 hours—standard test conditions for the expression of methicillin resistance.

[2] = system: Staphylococcus aureus MRQR (methicillin resistant and quinolone resistant); assay: MIC by agar dilution, Staphylococcus aureus MRQR; conditions: S. aureus MRQR, 10^4 CFU/spot, 37° C., 24 hours
Description: as §1, §2

Streptococcus pneumoniae = assay: MIC by agar dilution, Streptococcus pneumoniae; conditions: agar with 5% defibrinated horse blood, 10^4 CFU/spot, 37° C., 5% carbon dioxide, 48 hours
Description: as §1
(§3) Streptococci and enterococci were tested on agar supplemented with 5% defibrinated horse blood, an inoculum of 10^4 CFU/spot and an incubation temperature of 37° C., in an atmosphere of 5% carbon dioxide for 48 hours—blood is required for the growth of some of the test organisms. Fastidious Gram negative organisms were tested in Mueller-Hinton broth, supplemented with hemin and NAD, grown aerobically for 24 hours at 37° C., and with an innoculum of 5×10^4 CFU/well.

Enterococcus faecium = assay: MIC by agar dilution, Enterococcus faecium; conditions: agar with 5% defibrinated horse blood, 10^4 CFU/spot, 37° C., 5% carbon dioxide, 48 hours
Description: as §1, §3

Haemophilus influenzae = assay: MIC in Mueller-Hinton broth, Haemophilus influenzae; conditions: Mueller-Hinton broth with hemin and NAD, aerobic, 24 hours, 37° C., 5×10^4 CFU/well
Description: as §1, §3

Moraxella catarrhalis = assay: MIC in Mueller-Hinton broth, Moraxella catarrhalis; conditions: Mueller-Hinton broth with hemin and NAD, aerobic, 24 hours, 37° C., 5×10^4 CFU/well
Description: as §1, §3

[3] = system: Linezolid Resistant Streptococcus pneumoniae; assay: MIC by agar dilution, Linezolid Resistant Streptococcus pneumoniae; conditions: agar with 5% defibrinated horse blood, 10^4 CFU/spot, 37° C., 5% carbon dioxide, 48 hours
Description: as §1, §3

- MIC [1]: 4 µg/mL (≈ 9.15 µM)
- MIC [2]: 4 µg/mL (≈ 9.15 µM)
- MIC (Streptococcus pneumoniae): 1 µg/mL (≈ 2.29 µM)
- MIC (Enterococcus faecium): 4 µg/mL (≈ 9.15 µM)
- MIC (Haemophilus influenzae): 64 µg/mL (≈ 146 µM)
- MIC (Moraxella catarrhalis): 4 µg/mL (≈ 9.15 µM)
- MIC [3]: 64 µg/mL (≈ 146 µM)
SMILES: Cn1nnc(-c2ccc(-c3ccc(N4C[C@H](COc5ccon5)OC4=O)cc3F)cn2)n1 [Example 1]

Reference: patent US20060058317A1, “Oxazolidinone derivatives as antibacterial” (AstraZeneca AB, priority 2002, published 2006)
